Experiments:
[1] = Kinetic thiol consumption assay with model thiol glutathione; format: physicochemical; parameters: Rate constant with glutathione (k(GSH)): unit not given here; details: for Rate constant with Glutathione: Protein: Glutathione, cysteine position NA, in h-1
Description: (§1) A library of 120 acrylamides was screened against a) human cyclin-dependent kinase 2 (Cdk2, which contains one surface exposed cysteine residue—C177), prepared by cloning cDNA into the pRSETA bacterial expression vector to generate a poly-histidine tagged Cdk2 fusion that was purified from E. coli using standard techniques, and b) a model thiol (specific details are given below). The structures of these 120 acrylamides are set out in Table 1, above.
(§2) To wells containing 150 μL thiol (Cdk2 or model thiol) (5 μM) in degassed phosphate buffer (pH 8) was added immobilized TCEP beads (2% v/v).
(§3) After incubation of the fluorescence plates for 1 hour at room temperature, fluorescence measurements (excitation/emission of 380/470 nm) were taken on a PerkinElmer EnVision multilabel plate reader and processed with EnVision Workstation version 1.12.
(§4) Fluorescence measurements were normalized against a DMSO/thiol only control and plotted against time.
(§5) Rate constants were calculated using GraphPad software Prism version 6 by fitting a first order exponential decay to the data. The rate constant for each acrylamide with Cdk2 was divided by the rate constant for that fragment with the model thiol to provide the rate enhancement for each ligand candidate.
The model thiol in Example 1 is glutathione (GSH). Hits were defined as fragments where kCdk2/kGSH>5.8 (empirically determined as 3 standard deviations over the mean).

[2] = biological target: T1, human cyclin-dependent kinase 2 (Cdk2) (Homo sapiens, UniProt P24941); test: Kinetic thiol consumption assay with wild type Cdk2 (C177); format: binding; parameters: key to Rate enhancement, Cdk2 WT: k(Cdk2) divided by k(model thiol); Rate constant with Cdk2 (k(Cdk2)): unit not given here; details: for Rate enhancement, Cdk2 WT: no additional mutations; for Rate constant with Cdk2 WT: Protein: Cdk2, cysteine position WT, in h^-1
T1 construct: poly-histidine; made in house; host or cells: E. coli
Description: as §1, §2, §3, §4, §5

[3] = biological target: T2, Cdk2(C177A, F80C) (Homo sapiens, UniProt P24941, C177A/F80C); test: Kinetic thiol consumption assay with Cdk2 mutant F80C, incl. kobs versus concentration (Kd, k2); format: binding; parameters: key to Rate enhancement, Cdk2 F80C: Cdk2 rate constant divided by model-thiol rate constant; details: additional mutation C177A; for Rate constant with Cdk2 F80C: Protein: Cdk2, cysteine position F80C, in h^-1
T2 construct: poly-histidine; made in house; host or cells: E. coli
Description: Therefore the assay can be used to calculate both k2 and Kd by experimentally determining kobs at a suitable range of ligand candidate concentrations. Typically Kd and k2 would then be determined by fitting a hyperbolic curve to a plot of kobs against ligand candidate concentration (FIG. 9).
as §2, §3, §4, §5
(§6) A further set of set of additional Cdk2 mutants were screened, all containing the C177A mutation and therefore with only one cysteine on the surface: • F80C (without the K278C mutation) • H71C • S276C • N272 • T182C • R122C • S181C
(§7) Mutations were introduced by site-directed mutagenesis and the resulting cDNA was cloned into the pRSETA bacterial expression vector to generate a poly-histidine tagged Cdk2 fusion that was purified from E. coli using standard techniques.
Rate constants were calculated as described in the methodology section of Examples 1 and 2.

[4] = biological target: T3, Cdk2(H71C) (C177A) (Homo sapiens, UniProt P24941, C177A/H71C); test: Kinetic thiol consumption assay with Cdk2 mutant H71C; format: binding; parameters: key to Rate enhancement, Cdk2 H71C: rate constant with Cdk2 ÷ rate constant with model thiol (fold); details: additional mutation C177A; for Rate constant with Cdk2 H71C: Protein: Cdk2, cysteine position H71C, in h^-1
T3 construct: poly-histidine; made in house; host or cells: E. coli
Description: as §2, §3, §4, §5, §6, §7

[5] = biological target: T4, Cdk2(S276C) (C177A) (Homo sapiens, UniProt P24941, C177A/S276C); test: Kinetic thiol consumption assay with Cdk2 mutant S276C; format: binding; parameters: key to Rate enhancement, Cdk2 S276C: rate constant with Cdk2 ÷ rate constant with model thiol (fold); details: additional mutation C177A; for Rate constant with Cdk2 S276C: Protein: Cdk2, cysteine position S276C, in h^-1
T4 construct: poly-histidine; made in house; host or cells: E. coli
Description: as §2, §3, §4, §5, §6, §7

[6] = biological target: T5, Cdk2(N272C) (C177A) (Homo sapiens, UniProt P24941, C177A/N272C); test: Kinetic thiol consumption assay with Cdk2 mutant N272C; format: binding; parameters: key to Rate enhancement, Cdk2 N272: rate constant with Cdk2 ÷ rate constant with model thiol (fold); details: for Rate enhancement, Cdk2 N272: Cdk2 N272, additional mutation C177A; for Rate constant with Cdk2 N272C: Protein: Cdk2, cysteine position N272C, additional mutation C177A, in h^-1
T5 construct: poly-histidine; made in house; host or cells: E. coli
Description: as §2, §3, §4, §5, §6, §7

[7] = biological target: T6, Cdk2(T182C) (C177A) (Homo sapiens, UniProt P24941, C177A/T182C); test: Kinetic thiol consumption assay with Cdk2 mutant T182C; format: binding; parameters: key to Rate enhancement, Cdk2 T182C: rate constant with Cdk2 ÷ rate constant with model thiol (fold); details: additional mutation C177A; for Rate constant with Cdk2 T182C: Protein: Cdk2, cysteine position T182C, in h^-1
T6 construct: poly-histidine; made in house; host or cells: E. coli
Description: as §2, §3, §4, §5, §6, §7

[8] = biological target: T7, Cdk2(R122C) (C177A) (Homo sapiens, UniProt P24941, C177A/R122C); test: Kinetic thiol consumption assay with Cdk2 mutant R122C; format: binding; parameters: key to Rate enhancement, Cdk2 R122C: rate constant with Cdk2 ÷ rate constant with model thiol (fold); details: additional mutation C177A; for Rate constant with Cdk2 R122C: Protein: Cdk2, cysteine position R122C, in h-1
T7 construct: poly-histidine; made in house; host or cells: E. coli
Description: as §2, §3, §4, §5, §6, §7

[9] = biological target: T8, Cdk2(S181C) (C177A) (Homo sapiens, UniProt P24941, C177A/S181C); test: Kinetic thiol consumption assay with Cdk2 mutant S181C; format: binding; parameters: key to Rate enhancement, Cdk2 S181C: rate constant with Cdk2 ÷ rate constant with model thiol (fold); details: additional mutation C177A; for Rate constant with Cdk2 S181C: Protein: Cdk2, cysteine position S181C, in h^-1
T8 construct: poly-histidine; made in house; host or cells: E. coli
Description: as §2, §3, §4, §5, §6, §7

[10] = 500 μM ligand, 5 μM thiol, phosphate buffer pH 8

Compound | Rate constant with glutathione (k(GSH)) [1, 10] | Rate constant with Glutathione [1] | Rate constant with Cdk2 (k(Cdk2)) [2, 10] | Rate enhancement, Cdk2 WT [2] | Rate constant with Cdk2 WT [2] | k(Cdk2)/k(GSH) rate enhancement ([2]; model thiol glutathione) | Rate enhancement, Cdk2 F80C [3] | Rate constant with Cdk2 F80C [3] | Rate enhancement, Cdk2 H71C [4] | Rate constant with Cdk2 H71C [4] | Rate enhancement, Cdk2 S276C [5] | Rate constant with Cdk2 S276C [5] | Rate enhancement, Cdk2 N272 [6] | Rate constant with Cdk2 N272C [6] | Rate enhancement, Cdk2 T182C [7] | Rate constant with Cdk2 T182C [7] | Rate enhancement, Cdk2 R122C [8] | Rate constant with Cdk2 R122C [8] | Rate enhancement, Cdk2 S181C [9] | Rate constant with Cdk2 S181C [9]
C=CC(=O)N1CCN(Cc2noc(C3CC3)n2)CC1 [CA-091] | 0.00525 | 0.007745 | 0.0023 | 0.2968 | 0.002299 | 0.4376 | 0.1028 | 0.0007964 | 0.1944 | 0.001506 | 0.9396 | 0.007277 | 0.3769 | 0.002919 | 2.003 | 0.01551 | 0.6918 | 0.005358 | 1.139 | 0.008821
C=CC(=O)N1CCCCCC1C/C=C/c1ccccc1 (centres unmarked) [CA-096/146] | – | 0.01125 | – | 0.3023 | 0.003401 | – | 1.641 | 0.01846 | 0.8889 | 0.01 | 1.276 | 0.01436 | 0.8907 | 0.01002 | 10.32 | 0.1161 | 0.7142 | 0.008035 | 12.97 | 0.1459
C=CC(=O)N(Cc1ccco1)Cc1ccco1 [CA-099/153] | – | 0.2123 | – | 1.366 | 0.2899 | – | 0.1651 | 0.03506 | 0.2907 | 0.06172 | 2.266 | 0.481 | 2.393 | 0.5081 | 2.038 | 0.4326 | 2.423 | 0.5145 | 1.479 | 0.314
C=CC(=O)N1CCC2(CC1)NC(=O)C1(CCCCC1)N2 [CA-129/235] | – | 0.01093 | – | 0.2508 | 0.002741 | – | 0.1819 | 0.001988 | 0.03271 | 0.0003575 | 1.682 | 0.01838 | 0.3936 | 0.004302 | 0.8826 | 0.009647 | 0.925 | 0.01011 | 0.2227 | 0.002434

Source: patent publication US11415579B2, “Assay for measuring a rate of reaction between a target and a ligand candidate” (Imperial College Innovations Ltd., priority 2016, dated 2022)
